The results in this text go back to article PMC4805082, “Seizure control by decanoic acid through direct AMPA receptor inhibition” (Brain, 2015).

For assay [1], the system named is epileptiform activity (burst discharges) in hippocampal slices induced by low-Mg2+. As to the kind of experiment: In vitro seizure model, low-Mg2+ induced epileptiform activity in hippocampal slices. Type of assay: cell-based, rat. To be noted: 1 mM; low magnesium. The procedure: Male Sprague-Dawley rats (postnatal Days 19–30) were sacrificed using an overdose of isoflurane or pentobarbitone (500 mg/kg). After decapitation the brain was rapidly removed, the hippocampus or entorhinal cortex-hippocampus slices was dissected from the brain and […] thick transverse slices were prepared on a VT1200S vibratome (Leica) or Vibratome (Vibratome® 1500 sectioning system, Intracell). The slicing was performed in ice-cold sucrose-based solution containing (in mM): 75 sucrose, 87 NaCl, 22 glucose, 2.5 KCl, 7 MgCl2, 1.25 NaH2PO4, 0.5 CaCl2 and 25 NaHCO3, pH 7.4, 315–330 mOsm equilibrated with 95% O2 plus 5% CO2. The slices were then stored in a continuously oxygenated humidified interface holding chamber containing oxygenated artificial CSF (in mM): 120 NaCl, 22 glucose, 2.5 KCl, 1.3 MgSO4, 1 NaH2PO4, 25 NaHCO3 and 2.5 CaCl2, pH 7.4 296 mOsm, where they recovered for at least 1 h before use.
During the experiment, slices were transferred from the interface chamber into a submerged recording chamber, designed to optimize wash-in and wash-out of drugs, and continuously perfused using gravity feed at 3–6 ml/min with prewarmed (36°C) oxygenated artificial CSF (95% O2, 5% CO2). Field potentials were recorded with a glass microelectrode (1–2 MΩ) filled with artificial CSF solution placed in stratum radiatum of CA1 and were filtered at 1 kHz and digitized at 2 kHz (using an npi EXT-02F extracellular amplifier recorded with WinEDR software). In the pentylenetetrazol model, the epileptiform (paroxysmal) activity was induced by application of pentylenetetrazol (2 mM) to the perfusate and [K^+] was increased (to 6 mM); in low-Mg^2+ model, the epileptiform activity was elicited by using Mg^2+-free artificial CSF. Once the frequency of the paroxysmal activity was stable for at least 10 min, compounds were applied to the perfusate for the following 40 min, and washed out for a remaining 20 min. The anticonvulsant effects were evaluated by measuring the change in the frequency of the discharges at minute intervals. […]

The target in a further assay is T1, AMPA receptor GluA1 (Homo sapiens, UniProt P42261).
T1 construct: expressed in transfected cells; host or cells: Xenopus laevis oocytes injected with cRNA
T1 sequence (P42261 19-906 isoform P42261-2 limits assumed): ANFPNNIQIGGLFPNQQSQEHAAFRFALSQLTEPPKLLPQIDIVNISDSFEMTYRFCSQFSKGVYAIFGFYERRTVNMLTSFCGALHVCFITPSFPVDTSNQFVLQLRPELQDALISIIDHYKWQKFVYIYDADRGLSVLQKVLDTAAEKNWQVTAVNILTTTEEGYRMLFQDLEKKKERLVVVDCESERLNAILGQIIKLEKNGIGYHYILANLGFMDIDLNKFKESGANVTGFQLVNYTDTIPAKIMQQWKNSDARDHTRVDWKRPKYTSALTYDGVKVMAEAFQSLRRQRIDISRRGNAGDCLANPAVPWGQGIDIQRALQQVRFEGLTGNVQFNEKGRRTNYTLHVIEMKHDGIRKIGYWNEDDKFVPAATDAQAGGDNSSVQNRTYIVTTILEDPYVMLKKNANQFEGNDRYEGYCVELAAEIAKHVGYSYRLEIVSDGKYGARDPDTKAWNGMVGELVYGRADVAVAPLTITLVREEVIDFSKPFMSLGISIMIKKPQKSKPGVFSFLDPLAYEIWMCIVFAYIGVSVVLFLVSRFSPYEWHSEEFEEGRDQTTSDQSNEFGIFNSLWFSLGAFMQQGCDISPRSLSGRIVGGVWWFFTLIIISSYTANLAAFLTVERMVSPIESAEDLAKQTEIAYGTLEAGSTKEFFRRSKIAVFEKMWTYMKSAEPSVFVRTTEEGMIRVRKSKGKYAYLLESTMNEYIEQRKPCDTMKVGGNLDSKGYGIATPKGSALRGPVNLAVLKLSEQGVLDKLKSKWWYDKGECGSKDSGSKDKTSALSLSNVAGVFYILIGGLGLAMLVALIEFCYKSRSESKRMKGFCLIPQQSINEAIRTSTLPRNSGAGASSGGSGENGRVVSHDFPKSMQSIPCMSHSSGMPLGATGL
In words: Two-electrode voltage clamp, homomeric GluA1 AMPA receptor expressed in Xenopus oocytes. Type of assay: cell-based. The procedure:
The AMPA receptor (flip isoform) cDNAs inserted in a SP6 polymerase expression vector (pSP6T) were a generous gift from Prof. Ralf Schoepfer (NPP, UCL). RNA was transcribed in vitro from MluI linearized transcripts using the SP6 Promega RiboMAX® RNA synthesis kit according to manufacturer’s protocols except for the addition of 0.75 mM capping nucleotide m^7G(5’)ppp(5’)G (Promega) and 1.6 mM GTP. cRNA concentrations and integrity were estimated by the intensity of fluorescence bands in RNA denaturating gels. AMPA receptor cRNAs were mixed in a nominal 1:1 ratio and ∼5 ng was injected per oocyte.
(§1) Xenopus laevis oocytes were purchased from the European Xenopus Resource Centre, University of Portsmouth. Stage V to VI oocytes were mechanically dissected and then subjected to gentle shaking for ∼30–50 min at room temperature with modified Barth’s solution (in mM): 88 NaCl, 1 KCl, 2.4 NaHCO3, 0.82 MgCl2, 0.77 CaCl2, 15 Tris-Cl, adjusted to pH 7.4 with NaOH (Sigma-Aldrich), supplemented with 50 IU/ml penicillin and 50 µg/ml streptomycin (Invitrogen) and 50 µg/ml tetracycline (Sigma-Aldrich) and 1% collagenase (type 1A). Healthy oocytes were manually defolliculated and the injections of cRNA for homomeric subunits alone (GluA1), or heteromeric mixtures of two subunits together (GluA1/GluA2 or GluA2/GluA3) were made using an automated Drummond Nanoinject II injector. The oocytes were then incubated at 17°C in modified Barth’s solution for at least 48 h before use in electrophysiological recordings.
Experiments were performed at room temperature (∼21–23°C). An oocyte was placed in a recording chamber (0.3–0.5 ml volume) and perfused with ND96 solution (96 mM NaCl, 2 mM KCl, 1.8 mM CaCI2, 1 mM MgCl2, 5 mM HEPES, with pH adjusted to 7.5). Current and voltage electrodes were filled with 300 mM KCl and made from thin-walled borosilicate glass (GC150TF-7.5, Harvard Apparatus) using a PC-10 electrode puller (Narashige Instruments) and had resistances of 0.5–2 MΩ. Oocytes were voltage-clamped to a holding potential of −50 mV or −60 mV using a Turbo TEC-03 amplifier (npi electronics). […]
For orientation: Two-electrode voltage clamp is typically applied to oocytes expressing channels or transporters.

The target of the next assay is T2, AMPA receptor GluA1/2 (Homo sapiens, UniProt P42261+P42262).
T2 construct: expressed in transfected cells; host or cells: Xenopus laevis oocytes injected with cRNA (1:1 mix)
T2 sequence (P42261 19-906 isoform P42261-2 limits assumed): as above
T2 sequence (P42262 22-883 isoform P42262-2 limits assumed): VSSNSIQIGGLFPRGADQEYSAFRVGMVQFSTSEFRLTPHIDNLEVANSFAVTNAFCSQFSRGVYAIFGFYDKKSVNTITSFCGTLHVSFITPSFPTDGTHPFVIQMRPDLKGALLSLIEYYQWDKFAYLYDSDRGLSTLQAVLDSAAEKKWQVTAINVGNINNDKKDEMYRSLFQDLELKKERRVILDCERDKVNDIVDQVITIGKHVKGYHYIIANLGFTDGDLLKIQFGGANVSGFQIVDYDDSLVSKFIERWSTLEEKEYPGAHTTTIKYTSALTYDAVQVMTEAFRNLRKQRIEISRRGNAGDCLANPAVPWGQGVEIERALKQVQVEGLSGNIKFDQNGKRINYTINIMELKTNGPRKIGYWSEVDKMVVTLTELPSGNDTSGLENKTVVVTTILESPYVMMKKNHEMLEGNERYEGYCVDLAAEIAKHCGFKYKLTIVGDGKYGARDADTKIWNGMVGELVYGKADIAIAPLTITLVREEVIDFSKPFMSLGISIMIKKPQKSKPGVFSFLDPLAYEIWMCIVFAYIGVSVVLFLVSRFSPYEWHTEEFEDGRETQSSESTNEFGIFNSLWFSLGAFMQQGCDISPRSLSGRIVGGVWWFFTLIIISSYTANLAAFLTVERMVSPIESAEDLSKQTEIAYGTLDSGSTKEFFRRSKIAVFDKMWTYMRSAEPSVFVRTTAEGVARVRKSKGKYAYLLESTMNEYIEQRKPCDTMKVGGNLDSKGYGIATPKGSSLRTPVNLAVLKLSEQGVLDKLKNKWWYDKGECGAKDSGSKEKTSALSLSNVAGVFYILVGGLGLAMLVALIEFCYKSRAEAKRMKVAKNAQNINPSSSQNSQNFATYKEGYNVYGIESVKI
In words: Two-electrode voltage clamp, AMPA receptor GluA1/2 expressed in Xenopus oocytes. In kind it is cell-based. The procedure:
The AMPA receptor (flip isoform) cDNAs inserted in a SP6 polymerase expression vector (pSP6T) were a generous gift from Prof. Ralf Schoepfer (NPP, UCL). […] AMPA receptor cRNAs were mixed in a nominal 1:1 ratio and ∼5 ng was injected per oocyte.
as §1
Experiments were performed at room temperature (∼21–23°C). […]

SMILES strings stand for the structures.

For orientation: IC50 means the midpoint of a concentration-inhibition curve. Read a low IC50 as greater potency in that assay.

On to `CCCCCCCCCC(=O)O` [decanoic acid], for which the “effect on epileptiform activity” value in assay [1] is “completely blocked”. Also, the results for the IC50 on AMPA receptor GluA1 and on AMPA receptor GluA1/2 were 2090 µM and 1160 µM, respectively.
